From ChEMBL document CHEMBL4425155, “Synthesis and anti-HBV activity of α-stereoisomer of aristeromycin based analogs” (Bioorg Med Chem Lett, 2016)

Tests used:
Hepatitis B virus = assay: Antiviral activity against HBV infected in human HepG2.2.15.7 cells assessed as inhibition of viral DNA level after 9 days by real time PCR method; format: functional, organism-based; conditions: HepG2.2.15.7, 216 h
[1] = Cytotoxicity against human HepG2.2.15.7 cells assessed as reduction in cell viability after 9 days by tetrazolium dye based method

EC50 (Hepatitis B virus) | Compound | CC50 at 216 h [1]
6.6 µM | Cc1ncnc2c1c(Br)cn2[C@@H]1C[C@@H](CO)[C@@H](O)[C@H]1O | > 100 µM
> 100 µM | Cc1nc(N)c2c(Br)nn([C@@H]3C[C@@H](CO)[C@@H](O)[C@H]3O)c2n1 | > 100 µM
0.03 µM | Nc1ccn([C@@H]2CS[C@H](CO)O2)c(=O)n1 [LAMIVUDINE] | > 10 µM
